By Ki is commonly meant a dissociation constant, usually derived from enzyme kinetics or from competition with a known ligand. As a reminder, the ED50 is the dose that gives a 50% effect, or the effect in half of the subjects.

For test [1], the target named is T1, Adrenergic receptor alpha-2 (Rattus norvegicus, UniProt P22086+P19328+P22909).
T1 sequence (P22086 whole entry): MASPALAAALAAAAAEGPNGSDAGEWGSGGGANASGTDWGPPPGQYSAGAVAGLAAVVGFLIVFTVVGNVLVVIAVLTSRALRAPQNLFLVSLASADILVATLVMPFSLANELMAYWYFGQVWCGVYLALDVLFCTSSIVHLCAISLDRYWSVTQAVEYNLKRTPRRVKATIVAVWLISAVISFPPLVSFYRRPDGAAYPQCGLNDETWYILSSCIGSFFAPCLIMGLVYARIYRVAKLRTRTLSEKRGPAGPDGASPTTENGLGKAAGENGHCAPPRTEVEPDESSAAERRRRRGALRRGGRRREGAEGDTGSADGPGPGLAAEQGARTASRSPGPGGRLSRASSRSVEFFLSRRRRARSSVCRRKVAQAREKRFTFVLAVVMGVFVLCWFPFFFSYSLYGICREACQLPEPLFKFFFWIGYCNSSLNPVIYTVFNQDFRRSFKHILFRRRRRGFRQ
T1 sequence (P19328 whole entry): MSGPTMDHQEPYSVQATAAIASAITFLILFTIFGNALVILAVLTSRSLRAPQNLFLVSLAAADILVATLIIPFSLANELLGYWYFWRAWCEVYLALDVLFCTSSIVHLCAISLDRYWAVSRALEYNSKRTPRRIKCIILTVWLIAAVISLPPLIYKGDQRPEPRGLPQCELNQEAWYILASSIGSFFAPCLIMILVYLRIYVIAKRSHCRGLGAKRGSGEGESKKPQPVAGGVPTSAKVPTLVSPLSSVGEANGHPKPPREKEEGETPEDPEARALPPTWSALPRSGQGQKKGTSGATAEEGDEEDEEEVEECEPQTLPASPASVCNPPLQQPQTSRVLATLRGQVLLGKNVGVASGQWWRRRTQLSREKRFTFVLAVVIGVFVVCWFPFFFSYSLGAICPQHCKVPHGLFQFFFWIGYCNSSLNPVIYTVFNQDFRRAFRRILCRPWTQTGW
T1 sequence (P22909 whole entry): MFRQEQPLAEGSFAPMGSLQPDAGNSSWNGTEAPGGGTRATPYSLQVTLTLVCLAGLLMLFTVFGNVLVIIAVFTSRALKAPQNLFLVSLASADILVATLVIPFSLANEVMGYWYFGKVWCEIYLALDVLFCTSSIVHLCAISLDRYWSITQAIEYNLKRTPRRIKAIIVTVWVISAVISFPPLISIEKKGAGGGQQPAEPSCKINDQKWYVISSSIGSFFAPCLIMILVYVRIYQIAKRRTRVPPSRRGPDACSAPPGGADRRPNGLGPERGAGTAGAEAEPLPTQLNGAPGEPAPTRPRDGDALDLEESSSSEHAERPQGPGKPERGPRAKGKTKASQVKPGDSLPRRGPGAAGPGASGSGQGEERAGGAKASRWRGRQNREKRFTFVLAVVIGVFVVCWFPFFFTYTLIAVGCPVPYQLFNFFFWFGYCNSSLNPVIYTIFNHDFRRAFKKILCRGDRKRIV
Description: Displacement of [3H]clonidine from alpha2 adrenergic receptor in rat cerebral cortex by liquid scintillation method. Format: tissue-based. For orientation: In a radioligand displacement assay an active substance lowers the binding of a labelled ligand.

Test [2] deals with Rattus norvegicus. The test can be described thus: Effect on electrocardiogram in anaesthetized Wistar rat assessed as change in P-Q interval at 1 mg/kg, iv after 1 min by electrocardiography. The class given is functional.
Test [3] deals with Rattus norvegicus. Description: Effect on electrocardiogram in anaesthetized Wistar rat assessed as change in QRS interval at 1 mg/kg, iv after 1 min by electrocardiography. The class given is functional.
In test [4] the test system is Rattus norvegicus. The test can be described thus: Effect on heart rate in anaesthetized Wistar rat assessed as number of beats per minute at 1 mg/kg, iv after 1 min by electrocardiography. The class given is functional.
Test [5] relates to Rattus norvegicus. The test can be described thus: Effect on electrocardiogram in anaesthetized Wistar rat assessed as change in P-Q-interval at 1 mg/kg, iv after 5 mins by electrocardiography. Format: functional.
The subject of test [6] is Rattus norvegicus. The test can be described thus: Effect on electrocardiogram in anaesthetized Wistar rat assessed as change in QRS interval at 1 mg/kg, iv after 5 mins by electrocardiography. Format: functional.
For test [7], the system named is Rattus norvegicus. The test can be described thus: Effect on electrocardiogram in anaesthetized Wistar rat assessed as change in Q-T interval at 1 mg/kg, iv after 5 mins by electrocardiography. Format: functional.
Test [8] relates to Rattus norvegicus. Description: Effect on heart rate in anaesthetized Wistar rat assessed as number of beats per minute at 1 mg/kg, iv after 5 mins by electrocardiography. Format: functional.
Test [9] deals with Rattus norvegicus. Description: Effect on electrocardiogram in anaesthetized Wistar rat assessed as change in P-Q-interval at 1 mg/kg, iv after 15 mins by electrocardiography. Format: functional.
In test [10] the test system is Rattus norvegicus. Description: Effect on electrocardiogram in anaesthetized Wistar rat assessed as change in Q-T interval at 1 mg/kg, iv after 15 mins by electrocardiography. Format: functional.
Test [11] has as its system Rattus norvegicus. Description: Effect on heart rate in anaesthetized Wistar rat assessed as number of beats per minute at 1 mg/kg, iv after 15 mins by electrocardiography. Format: functional.
Test [12] deals with Rattus norvegicus. The test can be described thus: Antiarrhythmic activity against adrenaline-induced arrhythmia in po dosed anaesthetized Wistar rat assessed as inhibition of premature ventricular beats pretreated 60 mins prior to adrenaline challenge. To be noted: Heart. Format: functional.
A short description of test [13]: Decrease in amplitude of contraction in rabbit intestine at 10 uM after 5 mins. Format: functional, Oryctolagus cuniculus. On the set-up: scale not given: the % may be the effect or the level left.
Test [14] relates to Rattus norvegicus. The test can be described thus: Hypotensive activity in po dosed anaesthetized normotensive Wistar rat assessed as decrease in systolic pressure administered as single dose after 5 mins. The class given is functional, organism-based.
Test [15] has as its system Rattus norvegicus. Description: Hypotensive activity in anaesthetized normotensive Wistar rat assessed as decrease in systolic pressure at 0.125 to 1 mg/kg, iv administered as single dose after 5 mins. Format: functional. On the set-up: scale not given: the % may be the effect or the level left. Particulars: dose mg/kg 0.125-1.
Test [16] deals with Rattus norvegicus. The test can be described thus: Hypotensive activity in anaesthetized normotensive Wistar rat assessed as decrease in diastolic pressure at 0.125 to 1 mg/kg, iv administered as single dose after 5 mins. Particulars: dose mg/kg 0.125-1. On the set-up: scale not given: the % may be the effect or the level left. Format: functional.
Test [17] has as its system Rattus norvegicus. The test can be described thus: Hypotensive activity in anaesthetized normotensive Wistar rat assessed as decrease in systolic pressure at 0.625 mg/kg, iv administered as single dose after 5 mins. The class given is functional. Also noted: scale not given: the % may be the effect or the level left.
The test system of test [18] is Rattus norvegicus. Description: Hypotensive activity in anaesthetized normotensive Wistar rat assessed as decrease in diastolic pressure at 0.625 mg/kg, iv administered as single dose after 5 mins. Format: functional. On the set-up: scale not given: the % may be the effect or the level left.
The test system of test [19] is Rattus norvegicus. Description: Hypotensive activity in anaesthetized normotensive Wistar rat assessed as decrease in diastolic pressure at 0.625 mg/kg, po administered as single dose after 5 mins. The class given is functional, organism-based. Also noted: dose 0.625 mg/kg.
Test [20] has as its system Rattus norvegicus. Description: Hypotensive activity in anaesthetized normotensive Wistar rat assessed as reduction in norepinephrine induced pressor response at 1 mg/kg, iv after 5 mins. Format: functional, organism-based. On the set-up: dose 1 mg/kg.
In test [21] the test system is Rattus norvegicus. Description: Hypotensive activity in anaesthetized normotensive Wistar rat assessed as decrease in systolic pressure at 0.25 to 1 mg/kg, iv administered as single dose after 5 mins. To be noted: dose mg/kg 0.25-1. The class given is functional. Also noted: scale not given: the % may be the effect or the level left.
Test [22] has as its system Rattus norvegicus. Description: Hypotensive activity in anaesthetized normotensive Wistar rat assessed as decrease in diastolic pressure at 0.25 to 1 mg/kg, iv administered as single dose after 5 mins. Format: functional. On the set-up: scale not given: the % may be the effect or the level left. Particulars: dose mg/kg 0.25-1.
Test [23] concerns Rattus norvegicus. Description: Hypotensive activity in anaesthetized normotensive Wistar rat assessed as decrease in diastolic pressure at 0.125 to 1 mg/kg, po administered as single dose after 5 mins. The class given is functional, organism-based.
A short description of test [24]: Increase in frequency of contraction in rabbit intestine at 1 nM after 5 mins. Format: functional, Oryctolagus cuniculus.

Active and inactive are the calls of the source. The rule behind the calls is not given here.

In test [1], `COc1ccccc1OCCNC[C@@H](O)COc1cccc2[nH]ccc12` yielded an inhibition constant (Ki) of 467.3 nM. Besides, the Activity in test [2] was found to be 53.7 ms; in test [3], 22.3 ms; in test [4], 307.8 min⁻¹; in test [5] it was 50.7 ms; in [6], 21.7 ms; in [7] it was 66 ms. Moreover, the Activity in test [8] was found to be 310.2 min⁻¹; in test [9], 51.7 ms; in [10], 62.8 ms; in [11] it was 298 min⁻¹; in test [13], 31%. For the same compound, the ED50 in test [12] was determined as 1.28 mg/kg. Moreover, the result in test [14] was inactive.

Take `COc1ccccc1OCCNC[C@H](O)COc1cccc2[nH]ccc12`: in test [1], the Ki was found to be 365.5 nM. The Activity came to 52.3 ms in test [2]; 24.3 ms in [3]; 297.2 min⁻¹ in test [4]; 49.7 ms in test [5]; 24.3 ms in test [6]; 76.3 ms in test [7]. Moreover, the Activity came to 291.3 min⁻¹ in test [8]; 48 ms in test [9]; 72 ms in test [10]; 304.2 min⁻¹ in test [11]; 15% in test [15]; 14% in test [16]. The Activity in test [17] and in test [18] was 8% each time. Besides, in test [12], the ED50 stood at 0.61 mg/kg. In addition, the result in test [19] and in [20] was Active.

Regarding `COc1ccccc1OCCNCC(O)COc1cccc2[nH]ccc12` (racemic), the Ki in test [1] is given as 1.4 nM. Moreover, the Activity in test [2] amounted to 47.2 ms; in test [3] it was 28.4 ms; in test [4] it was 298.7 min⁻¹; in [5], 48.1 ms; in test [6], 24.9 ms; in test [7] it was 69 ms. Further, the Activity worked out at 294.5 min⁻¹ in test [8]; 46.2 ms in test [9]; 72.8 ms in test [10]; 287.3 min⁻¹ in test [11]; 10% in test [21]; 10% in [22]. Besides, the Activity in test [13] is recorded as 29%; in [24], 8%. Also, the ED50 in test [12] came to 0.44 mg/kg. Besides, the result in test [23] and in [20] was Active.
